Structures can show the parent of a compound that is named as a salt.
Tests used:
recombinant human FLT3 = target: T1, recombinant human FLT3 (Homo sapiens, UniProt P36888); test: In vitro FLT3 kinase assay (IMAP fluorescence polarization); type: biochemical; settings: mean, n = 4-8; ATP 100 μM; FAM-CSKtide 100 nM; read-out: IC50 (nM), typical mean IC50 values determined in the FLT3 kinase assay
T1 construct: N-terminal GST tagged, amino acids 564-end; GST (N); purchased Upstate 14-500
T1 sequence (P36888 564-993 limits assumed): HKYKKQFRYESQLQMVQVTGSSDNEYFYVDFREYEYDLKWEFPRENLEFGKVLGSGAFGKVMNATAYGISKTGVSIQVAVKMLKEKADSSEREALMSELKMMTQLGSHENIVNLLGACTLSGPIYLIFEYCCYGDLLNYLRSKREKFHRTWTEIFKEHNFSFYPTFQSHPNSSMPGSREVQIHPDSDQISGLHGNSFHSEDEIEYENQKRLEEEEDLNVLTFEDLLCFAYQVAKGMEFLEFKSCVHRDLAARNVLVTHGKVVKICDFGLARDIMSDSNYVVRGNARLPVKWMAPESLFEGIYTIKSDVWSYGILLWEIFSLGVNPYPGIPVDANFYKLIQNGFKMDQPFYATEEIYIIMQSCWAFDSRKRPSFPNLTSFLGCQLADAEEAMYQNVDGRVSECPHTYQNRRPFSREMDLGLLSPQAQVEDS
Description: The compounds according to the invention were evaluated for their inhibition of FLT3 by the following method:
In Vitro FLT3 Kinase Assay
An enzyme inhibition assay for the tyrosine kinase domain of FLT3 was established using a fluorescence polarization technique, Immobilized Metal Ion Affinity-Based Fluorescence Polarization (IMAP) from Molecular Devices.
Briefly: kinase activity is measured by incubating a fluorescent peptide substrate with the kinase domain. After completion of the kinase reaction a binding buffer is added. Upon phosphorylation of the substrate, the fluorescent peptide gains the ability to bind to a metal-coated nanoparticle. When the substrate is bound to the nanoparticle, the rotational is speed of the peptide is reduced, and thus the fluorescence polarization (fp) becomes high. Compounds inhibiting the kinase activity of the enzyme will result in a low degree of phosphorylated substrate and a low fp-signal.
IMAP Buffer kit with Progressive Binding System (Molecular Devices, #R8124): Reaction buffer: 10 mM Tris-HCL pH 7.2 with 10 mM MgCl2, 0.05% NaN3 and 0.01% Tween 20. Prior to use DTT was added to 1 mM DTT final concentration (complete reaction buffer).
Binding solution was prepared from buffer kit according to the manufactures recommendations. Binding Reagent was diluted 1:1500 in 40% Binding buffer A and 60% Binding buffer B.
FLT3 enzyme used was recombinant human FLT3 from Upstate (#14-500) 7.2 U/ml, N-terminal GST tagged, amino acids 564-end.
Substrate peptide used: FAM-CSKtide from Molecular Devices (#R7269) 20 μM, 5FAM-KKKKEEIYFFFG-NH2. […]
• Pipette into 96-well black ½ area plate: • 5 μl compound dilution or vehicle • 5 μl substrate peptide (400 nM) • 5 μl enzyme (0.05 U/ml) or complete reaction buffer for non specific background (NSB) • 5 μl ATP (400 μM) • Cover the plate and incubate at room temperature with gentle agitation II. […] Fluorescence Polarization analysis: • Measure fluorescein using a plate reader (Analyst AD) excitation wave length 485 and emission wave length 530, reading with integration time of 0.1 sec. […]

[1] = system: AML cell-line MV4-11 (FLT3-ITD); test: Viability and proliferation assay in AML cell line MV4-11; type: cell-based; settings: Homo sapiens; MV4-11 cells, 72 hours, viable cells by flow cytometry; read-out: Cell data MV4-11 (nM), EC50 values determined in AML-cell line
Description: AML cell-line MV4-11 carries the FLT3-internal tandem duplication. This cell-line has been widely used for evaluating the effect of FLT3-kinase inhibitors on viability and proliferation.
Briefly, cells are seeded at a low density into 96-well plates. Serial dilution of compounds is added and the cells are incubated for 72 hours. Total number of viable cells is measured using flow cytometry at the end of treatment, and the effect of the compounds is calculated as % inhibition compared to vehicle treated cells.
All cells were cultured under standard cell culture conditions, at 37° Celsius in an atmosphere of 5% CO2 in 90% humidity.
AML-cell line MV4-11 was cultured in DMEM Glutamax high glucose ([…] glucose) supplemented with 10% Fetal Bovine Serum (FBS) from Invitrogen. Cells were subcultured twice weakly, growing to a density of approx 2 million cells per ml prior to subcultivation.
For viability determination, 3000-5000 cells were seeded in 50 microliter culture medium into a 96-well plate. Serial dilutions 1:3 of compounds from 10 mM DMSO stock were made in serumfree culture medium supplemented with penicillin and streptomycin. 50 microliter of the serial dilutions were added to the cell-suspension. The final concentration of compounds was from 5 micromolar to 0.8 nM, or from 500 nM to 0.08 nM respectively. The DMSO concentration was kept constant at 0.05%.
At the end of the treatment, 100 microliter viability reagent (Guava ViaCount) was added to each well and number of cells and viability was determined using flow cytometry (Guava 96-well ViaCount assay). Typically the vehicle treated (0.05% DMSO) cell-line cells had doubled three times during the experiment.
% Survival was calculated compared to the vehicle treated cells at the end of experiment. EC50 values were determined using the equation (A+((B−A)/(1+((C/x)^D)))) where A equals min, B equals max, C equals EC50 and D equals Hill slope.

SMILES	IC50 (recombinant human FLT3)	EC50 [1]
c1cc(-c2cncc(Nc3ccc4cc[nH]c4c3)n2)ccn1 [Example 32, N-(6-Pyridin-4-ylpyrazin-2-yl)-1H-indol-6-amine]	560 nM	373 nM
Nc1ncc(-c2ccncc2)nc1NCCc1c[nH]c2ccccc12 [Example 15, N3-[2-(1H-Indol-3-yl)ethyl]-5-pyridin-4-ylpyrazine-2,3-diamine, trifluoroacetate]	60 nM	184 nM
NC(=O)c1ccc(-c2cncc(N[C@H]3CC[C@H](O)CC3)n2)cc1 [Example 28, 4-{6-[(trans-4-Hydroxycyclohexyl)amino]pyrazin-2-yl}benzamide, trifluoroacetate]	159 nM	178 nM

— patent publication US8436171B2, “Amino substituted pyrazines as inhibitors or protein kinases” (Akinion Pharmaceuticals AB, priority 2008, dated 2013)
